Experimental data published in patent publication US20230002736A1, “ENDODERM DIFFERENTIATION FROM PLURIPOTENT STEM CELL LINES” (priority 2019, published 2023).

What was measured:
[1] = system: iPSC-derived hepatocytes; test: RNA Sequencing of iPSCs fully differentiated to hepatocytes; type: cell-based, human; settings: 5 paired iPSCs, doxycycline during endoderm phase
Protocol: Differentiation of Definitive Endoderm to hepatocytes (days 8-23). iPSC-derived human endoderm prepared as described herein was cultured continuously on Matrigel or split 1:2 onto Matrigel plates for hepatic differentiation. Definitive endoderm (DE) was cultured in Iscove's modified Dulbecco's medium (Gibco catalog #supplemented with Gem21 NeuroPlex without insulin (Gemini Bio-Products catalog #400-962), Glutagro, non-essential amino acids (1×, Gibco catalog #11-140-050), 0.3 mM monothioglycerol, 5 μg/mL human insulin (Sigma), and 100 nM dexamethasone. To induce hepatoblasts, cells were treated with FGF2 (10 ng/mL) and BMP4 (20 ng/mL) for 5 days. During this phase, cells can be passaged using accutase and split at least 2 to 4× to increase yield and quality of final product again onto Matrigel with the addition of 10 μM Y-27632 and 2 μM doxycycline to increase cell survival during accutase treatment and splitting. This phase and the next were grown at low oxygen (4-6%) and 5% CO2. […]
RNA isolation, Real-Time PCR analysis, and RNA Sequencing. […] Quantitative Real-Time PCR was performed using FastStart Universal SYBR Green, Roche Diagnostics (Indianapolis, IN). […] On average, 27,642,407 raw reads were obtained and mapped. Raw reads were subjected to quality control. Clean reads were analyzed by Gene Ontology analysis, KEGG pathway enrichment, and cluster analysis. […]

[2] = system: iPSC lines; type: cell-based
Protocol: Induction of Definitive Endoderm (days 1-7). iPSCs were plated on 6-, 12-, or 96-well Matrigel-coated plates at different densities for differentiation in iPSC media containing 10 μM Y-27632 and 2 μM doxycycline. For example, typical plating density in a single well of a 6-well plate was 500,000 cells or 20,000 cells per well for 96-well plates. The differentiation process consisted of one week of RPMI media supplemented with Gem21 NeuroPlex without insulin at 1× (supplied at 50×, Gemini Bio-Products West Sacramento, Calif., catalog #400-962, or supplemented with Gibco B27 without insulin at 1×), Glutagro at 1× (Corning, Manassas, Va., catalog #25-015-CI, non-essential amino acids at 1× (Gibco, catalog #11-140-050), sodium butyrate (0.5 mM, Sigma Aldrich, catalog #B5887) and recombinant human Activin A (100 ng/mL, Peprotech, Rocky Hill, N.J., catalog #120-14E) for 7 days. On day 1, 2% KnockOut Serum Replacement (KSR; Gibco Catalog #10828028), CHIR-99021 (10 ng/mL, Selleckchem catalog #S2924), PI-103 (10 ng/mL,Selleckchem catalog #S1038), recombinant human BMP4 (10 ng/mL, Peprotech catalog #120-05ET) and FGF2 (20 ng/mL, Peprotech catalog #100-18B) were added to the media. On day 2, 1% KSR, PI-103 (10 ng/mL) and BMP4 (10 ng/mL) and FGF2 (20 ng/mL) and on day 3, 0.2% KSR and PI-103 (10 ng/mL) were added to the media. Doxycycline hyclate (Acros Organics catalog #446061000) was added throughout definitive endoderm induction starting on day 0 (passage day) at various concentrations, as described herein, with a standard concentration being 2 μM. These steps can be performed at normal room oxygen at about 20% or at low oxygen between 4 and 6%.

Q: With `C[C@H]1c2cccc(O)c2C(=O)C2=C(O)[C@]3(O)C(=O)C(C(N)=O)=C(O)[C@@H](N(C)C)[C@@H]3[C@@H](O)[C@@H]21` [doxycycline] as the compound, how does the “effect on final iPSC-derived hepatocytes (principal component analysis)” value [1] read?
A: The value was “did not alter the final product”.

Q: And the “concentration giving total cell death” value ([2]; by the third day of induction)?
A: Its value is > 10000 ng/mL.

Q: And the “concentration tolerated by the cells” value ([2]; endoderm induction)?
A: Its value is “up to 10 μg/mL”.
